Measured values taken from PubChem BioAssay (NCI).
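Exposure lasted 48 hours, with cells grown in 96-well plates and compounds tested at five concentrations. At the GI50, growth is halved. The concentration for full growth arrest is given as TGI.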

Assays:
Experiment in all cases: NCI tumour cell line growth inhibition, 48 h
UO-31 renal = tested on: UO-31 renal
NCI-H226 lung = tested on: NCI-H226 lung
LOX IMVI melanoma = tested on: LOX IMVI melanoma
ACHN renal = tested on: ACHN renal
HOP-62 NSCLC = tested on: HOP-62 NSCLC
SK-MEL-28 melanoma = tested on: SK-MEL-28 melanoma
MDA-MB-468 breast = tested on: MDA-MB-468 breast
COLO 205 colon = tested on: COLO 205 colon
HCT-15 colon = tested on: HCT-15 colon
CAKI-1 renal = tested on: CAKI-1 renal
SK-OV-3 ovarian = tested on: SK-OV-3 ovarian
MALME-3M melanoma = tested on: MALME-3M melanoma
CCRF-CEM leukemia = tested on: CCRF-CEM leukemia
SK-MEL-2 melanoma = tested on: SK-MEL-2 melanoma
NCI-H460 lung = tested on: NCI-H460 lung
T-47D breast = tested on: T-47D breast
M14 melanoma = tested on: M14 melanoma
OVCAR-5 ovarian = tested on: OVCAR-5 ovarian
KM12 colon = tested on: KM12 colon
MDA-MB-231 breast = tested on: MDA-MB-231 breast
MDA-MB-435 = tested on: MDA-MB-435
UACC-257 melanoma = tested on: UACC-257 melanoma
MOLT-4 leukemia = tested on: MOLT-4 leukemia
K-562 leukemia = tested on: K-562 leukemia
IGROV1 ovarian = tested on: IGROV1 ovarian
SNB-75 CNS = tested on: SNB-75 CNS
OVCAR-4 ovarian = tested on: OVCAR-4 ovarian
SK-MEL-5 melanoma = tested on: SK-MEL-5 melanoma
OVCAR-3 ovarian = tested on: OVCAR-3 ovarian
SF-268 CNS = tested on: SF-268 CNS
HL-60(TB) leukemia = tested on: HL-60(TB) leukemia
EKVX NSCLC = tested on: EKVX NSCLC
RXF 393 renal = tested on: RXF 393 renal
DU-145 prostate = tested on: DU-145 prostate
SF-539 CNS = tested on: SF-539 CNS
HOP-92 NSCLC = tested on: HOP-92 NSCLC
SN12C renal = tested on: SN12C renal
PC-3 prostate = tested on: PC-3 prostate
HCT-116 colon = tested on: HCT-116 colon
A549 NSCLC = tested on: A549 NSCLC
TK-10 renal = tested on: TK-10 renal
SNB-19 CNS = tested on: SNB-19 CNS
HS 578T breast = tested on: HS 578T breast
UACC-62 melanoma = tested on: UACC-62 melanoma
OVCAR-8 ovarian = tested on: OVCAR-8 ovarian
786-0 renal = tested on: 786-0 renal
NCI-H522 lung = tested on: NCI-H522 lung
HCC-2998 colon = tested on: HCC-2998 colon
BT-549 breast = tested on: BT-549 breast
SR leukemia = tested on: SR leukemia
NCI-H23 lung = tested on: NCI-H23 lung
MCF7 breast = tested on: MCF7 breast
SF-295 CNS = tested on: SF-295 CNS
RPMI-8226 leukemia = tested on: RPMI-8226 leukemia
NCI/ADR-RES ovarian = tested on: NCI/ADR-RES ovarian
A498 renal = tested on: A498 renal
U251 CNS = tested on: U251 CNS

COc1ccc(C(=O)Nc2sc3c(c2C#N)CCC(=O)C3)cc1C(F)(F)F
GI50 (UO-31 renal): 422 nM
TGI (UO-31 renal): 1620 nM
GI50 (NCI-H226 lung): 2310 nM
TGI (NCI-H226 lung): 7090 nM
GI50 (LOX IMVI melanoma): 416 nM
TGI (LOX IMVI melanoma): 1650 nM
GI50 (ACHN renal): 375 nM
TGI (ACHN renal): 1260 nM
GI50 (HOP-62 NSCLC): 2650 nM
TGI (HOP-62 NSCLC): 8880 nM
GI50 (SK-MEL-28 melanoma): 882 nM
TGI (SK-MEL-28 melanoma): 2330 nM
GI50 (MDA-MB-468 breast): 495 nM
TGI (MDA-MB-468 breast): 1480 nM
GI50 (COLO 205 colon): 582 nM
TGI (COLO 205 colon): 1620 nM
GI50 (HCT-15 colon): 385 nM
TGI (HCT-15 colon): 1490 nM
GI50 (CAKI-1 renal): 491 nM
TGI (CAKI-1 renal): 1840 nM
GI50 (SK-OV-3 ovarian): 2480 nM
TGI (SK-OV-3 ovarian): 6710 nM
GI50 (MALME-3M melanoma): 370 nM
TGI (MALME-3M melanoma): 1420 nM
GI50 (CCRF-CEM leukemia): 270 nM
TGI (CCRF-CEM leukemia): > 100000 nM
GI50 (SK-MEL-2 melanoma): 1670 nM
TGI (SK-MEL-2 melanoma): 4060 nM
GI50 (NCI-H460 lung): 2110 nM
TGI (NCI-H460 lung): 6730 nM
GI50 (T-47D breast): 352 nM
TGI (T-47D breast): 2080 nM
GI50 (M14 melanoma): 499 nM
TGI (M14 melanoma): 1920 nM
GI50 (OVCAR-5 ovarian): 1960 nM
TGI (OVCAR-5 ovarian): 4840 nM
GI50 (KM12 colon): 584 nM
TGI (KM12 colon): 2210 nM
GI50 (MDA-MB-231 breast): 1140 nM
TGI (MDA-MB-231 breast): 2600 nM
GI50 (MDA-MB-435): 594 nM
TGI (MDA-MB-435): 2060 nM
GI50 (UACC-257 melanoma): 1600 nM
TGI (UACC-257 melanoma): 3920 nM
GI50 (MOLT-4 leukemia): 322 nM
TGI (MOLT-4 leukemia): > 19700 nM
GI50 (K-562 leukemia): 294 nM
TGI (K-562 leukemia): > 100000 nM
GI50 (IGROV1 ovarian): 1290 nM
TGI (IGROV1 ovarian): 2970 nM
GI50 (SNB-75 CNS): 1220 nM
TGI (SNB-75 CNS): 3680 nM
GI50 (OVCAR-4 ovarian): 1110 nM
TGI (OVCAR-4 ovarian): 2760 nM
GI50 (SK-MEL-5 melanoma): 1350 nM
TGI (SK-MEL-5 melanoma): 2660 nM
GI50 (OVCAR-3 ovarian): 845 nM
TGI (OVCAR-3 ovarian): 2440 nM
GI50 (SF-268 CNS): 2030 nM
TGI (SF-268 CNS): 6600 nM
GI50 (HL-60(TB) leukemia): 339 nM
TGI (HL-60(TB) leukemia): 5780 nM
GI50 (EKVX NSCLC): 2350 nM
TGI (EKVX NSCLC): 8760 nM
GI50 (RXF 393 renal): 434 nM
TGI (RXF 393 renal): 1690 nM
GI50 (DU-145 prostate): 2910 nM
TGI (DU-145 prostate): > 30400 nM
GI50 (SF-539 CNS): 343 nM
TGI (SF-539 CNS): 1280 nM
GI50 (HOP-92 NSCLC): 708 nM
TGI (HOP-92 NSCLC): 2530 nM
GI50 (SN12C renal): 966 nM
TGI (SN12C renal): 6190 nM
GI50 (PC-3 prostate): 317 nM
TGI (PC-3 prostate): 4000 nM
GI50 (HCT-116 colon): 299 nM
TGI (HCT-116 colon): 1580 nM
GI50 (A549 NSCLC): 2780 nM
TGI (A549 NSCLC): > 100000 nM
GI50 (TK-10 renal): 1210 nM
TGI (TK-10 renal): 7600 nM
GI50 (SNB-19 CNS): 2500 nM
TGI (SNB-19 CNS): 10500 nM
GI50 (HS 578T breast): 862 nM
TGI (HS 578T breast): 3680 nM
GI50 (UACC-62 melanoma): 826 nM
TGI (UACC-62 melanoma): 2210 nM
GI50 (OVCAR-8 ovarian): 1280 nM
TGI (OVCAR-8 ovarian): 3710 nM
GI50 (786-0 renal): 1820 nM
TGI (786-0 renal): 7270 nM
GI50 (NCI-H522 lung): 225 nM
TGI (NCI-H522 lung): 753 nM
GI50 (HCC-2998 colon): 1450 nM
TGI (HCC-2998 colon): 3200 nM
GI50 (BT-549 breast): 564 nM
TGI (BT-549 breast): 1920 nM
GI50 (SR leukemia): 339 nM
TGI (SR leukemia): > 100000 nM
GI50 (NCI-H23 lung): 537 nM
TGI (NCI-H23 lung): 2710 nM
GI50 (MCF7 breast): 408 nM
TGI (MCF7 breast): 3150 nM
GI50 (SF-295 CNS): 1790 nM
TGI (SF-295 CNS): 4780 nM
GI50 (RPMI-8226 leukemia): 145 nM
GI50 (NCI/ADR-RES ovarian): 1300 nM
TGI (NCI/ADR-RES ovarian): 3640 nM
GI50 (A498 renal): 5740 nM
TGI (A498 renal): 36100 nM
GI50 (U251 CNS): 723 nM
TGI (U251 CNS): 2530 nM
